Source: patent US20180127464A1, “NOVEL EPHA4 INHIBITORS TARGETING ITS LIGAND BINDING DOMAIN” (Sanford-Burnham Medical Research Institute, priority 2015, published 2018)
Where a SMILES comes first, the peptide text is derived from it. [ ]: non-standard residue; d: D form. Trp(5-OH) = N[C@@H](Cc1c[nH]c2ccc(O)cc12)C(=O)O; Phe(4-Cl) = N[C@@H](Cc1ccc(Cl)cc1)C(=O)O; 4Pal = N[C@@H](Cc1ccncc1)C(=O)O; Ava = NCCCCC(=O)O

Assays:
[1] = target: EphA4 ligand binding domain (UniProt P54764); assay: FPA, displacement of FITC-KYL peptide from EphA4 LBD; grade legend: 5 µM ≤ C
[2] = system: SOD1(G93A)-mutant mice; assay: Pilot study for toxicity and dose in SOD1(G93A)-mutant mice; assay type: in vivo; conditions: 2 mice
[3] = system: SOD1(G93A)-mutant mice; assay: In vivo efficacy in an animal model of ALS
Procedure: Equal number of SOD1(G93A)-mutant mice of the same gender from same litter were randomly divided into two groups (n=12).
FIG. 3. […] The data were analyzed using the Kaplan-Meier method. Animal studies. Equal number of SOD1(G93A)-mutant mice of the same gender from same litter were randomly divided into two groups. […] Animals were assessed daily for the time of onset of hind limb tremor and loss of splay reflex. The endpoint was designated as the point when the mouse could no longer roll over within 10 s after being pushed onto its side. At this stage, mice were killed. Disease onset and survival time were compared using the Kaplan-Meier method. […] Values are given as mean±SD. Preliminary BBB penetration and PK studies were performed by Agilux (Cambridge, Mass.) and in house.

[4] = target: 15N-labeled EphA4-LBD (Homo sapiens, UniProt P54764); assay: 2D-[15N,1H]-HSQC NMR detection of binding; conditions: 300 K
Source text: NMR spectra of ^15N-labeled EphA4-LBD were acquired on 700 MHz Bruker Avance spectrometer equipped with TCI cryoprobe. All NMR data were processed and analyzed using TOPSPIN2.1 (Bruker Biospin Corp., Billerica, Mass., USA) and SPARKY3.1 (University of California, San Francisco, Calif., USA).

[5] = target: EphA2 receptor (Homo sapiens, UniProt P29317); assay: ITC with EphA2 receptor; assay type: binding; conditions: same experimental conditions as EphA4 ITC
Procedure: (§1) isothermal titration calorimetry (ITC) to measure binding constant was performed on a Model ITC200 calorimeter from Microcal/GE Life Sciences. When indicated, measurements were performed in a reverse way—i.e., the protein was titrated into the compound solution. A total of 8 μl EphA4 solution (1.65 mM) was injected into the cell containing 165 µM of compound per injection. All titrations were performed at 25° C. in PBS buffer supplemented with 10% DMSO. Experimental data were analyzed using Microcal Origin software provided by the ITC manufacturer (Microcal).

[6] = target: T1, EphA4 LBD (Homo sapiens, UniProt P54764); assay: Fluorescence polarization assay (FPA), displacement of FITC-labeled KYL peptide; assay type: binding; conditions: PBS pH 7.2
Procedure: Fluorescence Polarization Assay (FPA):
The EphA4 binding KYL peptide ([…], Murai et al. Mol. Cell. Neurosci. 2003, 24:1000-1011) was labeled at the N-terminus with fluorescein isothiocyanate (FITC) and purified by HPLC. For competitive binding assays, 1 μL of 200 μM EphA4 LBD was pre-incubated with the tested compounds at various concentrations in 98 μL PBS (pH=7.2) in 96-well black plates at room temperature for 10 min, and then 1 μL of 500 μM FITC labeled EphA4 peptide was added to produce a final volume of 100 μL. The KYL and DMSO were incubated in each assay as positive and negative controls, respectively. After 30 min of incubation at room temperature, the polarization values in millipolarization units were measured at excitation/emission wavelengths of 480/535 nm with a multilabel plate reader (PerkinElmer, Waltham, Mass., USA). Ki value was determined by fitting the experimental data to a Sigmoidal dose-response (variable slope) nonlinear regression model (GraphPad Prism version 5.01 for Windows, GraphPad Software, San Diego, Calif., USA).
(§2) (B) EphA4-LBD was dissolved in 50 mM potassium phosphate buffer (pH 6.5), containing 100 mM NaCl. ITC were measured.
Target sequence in this assay (P54764 30-209 limits assumed): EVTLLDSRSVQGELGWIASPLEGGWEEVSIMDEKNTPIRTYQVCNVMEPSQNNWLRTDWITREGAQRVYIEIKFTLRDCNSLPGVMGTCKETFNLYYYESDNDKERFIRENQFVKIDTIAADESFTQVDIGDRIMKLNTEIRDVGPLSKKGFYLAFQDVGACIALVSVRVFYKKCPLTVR

[7] = target: T1, EphA4 LBD; assay: Isothermal titration calorimetry (ITC); assay type: binding; conditions: 25° C., PBS with 10% DMSO
Procedure: Isothermal Titration Calorimetry (ITC):
as §1, §2

[8] = target: EphA4 (Homo sapiens, UniProt P54764); conditions: previously reported; cited from earlier work
[9] = target: EphA4 ligand binding domain (UniProt P54764); assay: ITC; grade legend: A < 1 µM
[10] = target: EphA4-LBD mutant 159A (UniProt P54764); assay: ITC
[11] = target: EphA4 ligand binding domain (UniProt P54764); assay: ITC
[12] = target: EphA4-LBD mutant 159G (UniProt P54764); assay: ITC
[13] = target: EphA4 ligand binding domain (UniProt P54764); assay: FPA, displacement of FITC-KYL peptide from EphA4 LBD; repeated experiments

Chain of EphA4 ligand binding domain (P54764 29-209 limits assumed): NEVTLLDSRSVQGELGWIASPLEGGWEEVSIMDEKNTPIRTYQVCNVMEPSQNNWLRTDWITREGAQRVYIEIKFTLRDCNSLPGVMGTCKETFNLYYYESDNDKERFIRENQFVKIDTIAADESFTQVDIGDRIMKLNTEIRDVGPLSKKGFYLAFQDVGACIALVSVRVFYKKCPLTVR
Chain of EphA4 (P54764 20-986, species assumed): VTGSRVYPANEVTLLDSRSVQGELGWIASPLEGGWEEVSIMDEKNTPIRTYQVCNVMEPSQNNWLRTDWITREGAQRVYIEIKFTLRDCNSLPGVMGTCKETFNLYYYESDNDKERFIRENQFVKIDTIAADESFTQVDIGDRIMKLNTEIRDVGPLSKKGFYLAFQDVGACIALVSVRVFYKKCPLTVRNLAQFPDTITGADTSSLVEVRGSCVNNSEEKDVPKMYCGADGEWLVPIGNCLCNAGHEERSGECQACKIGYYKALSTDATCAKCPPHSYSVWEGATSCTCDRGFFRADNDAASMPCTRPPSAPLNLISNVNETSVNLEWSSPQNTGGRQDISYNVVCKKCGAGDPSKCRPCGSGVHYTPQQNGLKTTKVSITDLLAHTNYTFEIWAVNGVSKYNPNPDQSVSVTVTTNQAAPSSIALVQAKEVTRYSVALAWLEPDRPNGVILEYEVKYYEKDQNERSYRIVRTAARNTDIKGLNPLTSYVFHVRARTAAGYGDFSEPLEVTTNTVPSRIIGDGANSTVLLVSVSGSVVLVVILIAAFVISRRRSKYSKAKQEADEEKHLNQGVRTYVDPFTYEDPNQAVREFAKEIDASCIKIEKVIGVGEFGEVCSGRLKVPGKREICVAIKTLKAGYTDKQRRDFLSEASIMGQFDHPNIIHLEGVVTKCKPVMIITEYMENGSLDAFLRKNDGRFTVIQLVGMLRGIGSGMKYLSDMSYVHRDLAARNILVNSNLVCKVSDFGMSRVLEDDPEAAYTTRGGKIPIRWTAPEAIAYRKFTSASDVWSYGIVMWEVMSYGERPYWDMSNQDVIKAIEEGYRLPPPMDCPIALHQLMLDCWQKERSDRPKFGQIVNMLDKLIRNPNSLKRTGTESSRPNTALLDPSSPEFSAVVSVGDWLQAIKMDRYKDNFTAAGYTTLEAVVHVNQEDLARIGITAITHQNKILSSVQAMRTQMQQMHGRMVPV
Chain of EphA4-LBD mutant 159A (P54764 other isoform, or with tags, fused parts or gaps mutant limits assumed): as the sequence (P54764 29-209 limits assumed) above, with I31A counted along it
Chain of 15N-labeled EphA4-LBD (P54764 30-209 limits assumed): as the sequence (P54764 30-209 limits assumed) above
Chain of EphA2 receptor (P29317 24-976): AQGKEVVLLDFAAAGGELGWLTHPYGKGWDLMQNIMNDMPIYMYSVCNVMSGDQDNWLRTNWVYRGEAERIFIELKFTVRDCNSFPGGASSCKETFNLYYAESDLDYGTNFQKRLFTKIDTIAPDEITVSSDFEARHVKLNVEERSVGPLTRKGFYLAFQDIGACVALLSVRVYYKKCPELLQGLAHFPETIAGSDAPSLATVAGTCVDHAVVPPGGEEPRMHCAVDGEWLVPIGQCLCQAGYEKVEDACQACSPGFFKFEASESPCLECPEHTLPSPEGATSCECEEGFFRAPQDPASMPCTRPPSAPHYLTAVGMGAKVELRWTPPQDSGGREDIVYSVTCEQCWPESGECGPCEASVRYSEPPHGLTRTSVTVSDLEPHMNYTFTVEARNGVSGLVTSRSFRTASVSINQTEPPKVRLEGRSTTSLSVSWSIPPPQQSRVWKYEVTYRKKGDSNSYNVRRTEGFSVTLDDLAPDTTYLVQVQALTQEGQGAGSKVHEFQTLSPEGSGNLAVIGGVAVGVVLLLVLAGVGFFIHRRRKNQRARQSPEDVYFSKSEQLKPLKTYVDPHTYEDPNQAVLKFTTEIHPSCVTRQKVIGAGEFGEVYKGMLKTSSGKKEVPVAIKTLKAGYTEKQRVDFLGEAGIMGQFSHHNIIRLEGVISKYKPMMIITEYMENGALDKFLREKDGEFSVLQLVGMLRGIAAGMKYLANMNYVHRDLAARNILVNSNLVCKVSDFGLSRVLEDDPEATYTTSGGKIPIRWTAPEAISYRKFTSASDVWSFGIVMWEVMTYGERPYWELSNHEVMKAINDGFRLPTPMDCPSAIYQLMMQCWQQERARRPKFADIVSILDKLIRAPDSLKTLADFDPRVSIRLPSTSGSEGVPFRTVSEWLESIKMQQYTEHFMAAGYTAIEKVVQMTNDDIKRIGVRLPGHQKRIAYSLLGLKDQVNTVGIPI
Chain of EphA4-LBD mutant 159G (P54764 other isoform, or with tags, fused parts or gaps mutant limits assumed): as the sequence (P54764 29-209 limits assumed) above, with I31G counted along it

For “Compound 11: 4-amino-N-((S)-1-((S)-3-(4-chlorophenyl)-1-((S)-1-(2-(naphthalen-1-yl)ethylamino)-1-oxo-3-(pyridin-4-yl)propan-2-ylamino)-1-oxopropan-2-ylamino)-3-(5-hydroxy-1H-indol-3-yl)-1-oxopropan-2-yl)butanamide (peptide)”, the Ki [1] was over 5 µM.

In the case of `COc1ccc2[nH]cc(CCNC(=O)[C@H](Cc3ccncc3)NC(=O)[C@H](Cc3ccc(Cl)cc3)NC(=O)[C@H](Cc3c[nH]c4ccc(O)cc34)NC(=O)CCCN)c2c1` [Compound 7, 4-amino-N-((S)-1-((S)-3-(4-chlorophenyl)-1-((S)-1-(2-(5-methoxy-1H-indol-3-yl)ethylamino)-1-oxo-3-(pyridin-4-yl)propan-2-ylamino)-1-oxopropan-2-ylamino)-3-(5-hydroxy-1H-indol-3-yl)-1-oxopropan-2-yl)butanamide], the “Signs of toxicity compared to control mice” value ([2]; 30 mg/Kg daily i.p. for several weeks) is reported as “no adverse sign of toxicity were observed”, the “Survival in pilot study” value ([2]; 30 mg/Kg daily i.p.) is reported as “increased survival” and the “Effect on disease onset” value ([3]; 30 mg/Kg i.p. daily in saline) is reported as “without affecting the disease onset”. For the same compound, the “Kaplan-Meier survival compared to control mice” value ([3]; 30 mg/kg daily i.p.) was “increased survival”, the “Average survival time from disease onset to end point” value ([3]; 30 mg/kg daily i.p. from postnatal day 60, mean±SD, control 28.2±4.2 days, p<0.01) was 38.6 ± 5.7 days and the Average life span ([3]; 30 mg/kg daily i.p. from postnatal day 60, n=12, mean±SD, control 134.3±7.2 days, p<0.01) was 142.8 ± 6.9 days. For the same compound, the “Binding exchange regime by NMR” value [4] was “slow exchange in the NMR time scale” and the “Binding to the EphA2 receptor by ITC” value [5] was “not observed”.

In the case of `NCCCC(=O)N[C@@H](Cc1c[nH]c2ccc(O)cc12)C(=O)N[C@@H](Cc1ccc(Cl)cc1)C(=O)N[C@@H](Cc1ccncc1)C(=O)NCCc1c[nH]c2ccc(F)cc12` [Compound 6, 4-amino-N-((S)-1-((S)-3-(4-chlorophenyl)-1-((S)-1-(2-(5-fluoro-1H-indol-3-yl)ethylamino)-1-oxo-3-(pyridin-4-yl)propan-2-ylamino)-1-oxopropan-2-ylamino)-3-(5-hydroxy-1H-indol-3-yl)-1-oxopropan-2-yl)butanamide], the Ki [6] is reported as 1 to 5 µM.

In the case of `NCCCC(=O)N[C@@H](Cc1c[nH]c2ccc(O)cc12)C(=O)N[C@@H](Cc1ccc(Cl)cc1)C(=O)N[C@@H](Cc1ccncc1)C(=O)NCCc1c[nH]c2ccccc12` [Compound 5, N-((S)-1-((S)-1-((S)-1-(2-(1H-indol-3-yl)ethylamino)-1-oxo-3-(pyridin-4-yl)propan-2-ylamino)-3-(4-chlorophenyl)-1-oxopropan-2-ylamino)-3-(5-hydroxy-1H-indol-3-yl)-1-oxopropan-2-yl)-4-aminobutanamide], the Kd [7] is reported as 1 to 5 µM and the Ki [6] is reported as 1 to 5 µM.

`COc1ccc2c(CCNC(=O)[C@H](Cc3ccncc3)NC(=O)[C@H](Cc3ccc(Cl)cc3)NC(=O)[C@H](Cc3c[nH]c4ccc(O)cc34)NC(=O)CCCN)c[nH]c2c1` [Compound 10, 4-amino-N-((S)-1-((S)-3-(4-chlorophenyl)-1-((S)-1-(2-(6-methoxy-1H-indol-3-yl)ethylamino)-1-oxo-3-(pyridin-4-yl)propan-2-ylamino)-1-oxopropan-2-ylamino)-3-(5-hydroxy-1H-indol-3-yl)-1-oxopropan-2-yl)butanamide] showed a Kd [7] of under 1 µM and a Ki [6] of 1 to 5 µM.

`NCCCCC(=O)N[C@@H](Cc1c[nH]c2ccc(O)cc12)C(=O)N[C@@H](Cc1ccc(Cl)cc1)C(=O)N[C@@H](Cc1ccncc1)C(=O)N[C@H](Cc1c[nH]c2ccccc12)C(N)=O` [Compound 4, 5-amino-N-((S)-1-((S)-1-((S)-1-((R)-1-amino-3-(1H-indol-3-yl)-1-oxopropan-2-ylamino)-1-oxo-3-(pyridin-4-yl)propan-2-ylamino)-3-(4-chlorophenyl)-1-oxopropan-2-ylamino)-3-(5-hydroxy-1H-indol-3-yl)-1-oxopropan-2-yl)pentanamide] (H-[Ava][Trp(5-OH)][Phe(4-Cl)][4Pal][dW]-NH2) gave a Ki [6] of 1 to 5 µM.

For KYLPYWPVLSSL, the “Kd for EphA4 (reported peptides)” value [8] is listed as “low micromolar range”.

For `NCCCC(=O)N[C@@H](Cc1c[nH]c2ccc(O)cc12)C(=O)N[C@@H](Cc1ccc(Cl)cc1)C(=O)N[C@@H](Cc1ccncc1)C(=O)NCCc1cccc2ccccc12` [Compound 11, 4-amino-N-((S)-1-((S)-3-(4-chlorophenyl)-1-((S)-1-(2-(naphthalen-1-yl)ethylamino)-1-oxo-3-(pyridin-4-yl)propan-2-ylamino)-1-oxopropan-2-ylamino)-3-(5-hydroxy-1H-indol-3-yl)-1-oxopropan-2-yl)butanamide], the Ki [6] was at least 5 µM.

Compound “Compound 7: 4-amino-N-((S)-1-((S)-3-(4-chlorophenyl)-1-((S)-1-(2-(5-methoxy-1H-indol-3-yl)ethylamino)-1-oxo-3-(pyridin-4-yl)propan-2-ylamino)-1-oxopropan-2-ylamino)-3-(5-hydroxy-1H-indol-3-yl)-1-oxopropan-2-yl)butanamide (peptide)” has a Kd [9] of under 1 µM, a Kd [10] of 9.09 µM and a Kd [11] of 0.45 µM. The Kd [12] was 3.66 µM and the Ki [13] was 0.5 to 0.66 µM.

For `NCCCC(=O)N[C@@H](Cc1c[nH]c2ccc(O)cc12)C(=O)N[C@@H](Cc1ccc(Cl)cc1)C(=O)N[C@@H](Cc1ccncc1)C(=O)NCCc1c[nH]c2ccc(O)cc12` [Compound 8, 4-amino-N-((S)-1-((S)-3-(4-chlorophenyl)-1-((S)-1-(2-(5-hydroxy-1H-indol-3-yl)ethylamino)-1-oxo-3-(pyridin-4-yl)propan-2-ylamino)-1-oxopropan-2-ylamino)-3-(5-hydroxy-1H-indol-3-yl)-1-oxopropan-2-yl)butanamide], the Kd [7] was 1 to 5 µM and the Ki [6] was 1 to 5 µM.

In the case of `NCCCC(=O)N[C@@H](Cc1c[nH]c2ccc(O)cc12)C(=O)N[C@@H](Cc1ccc(Cl)cc1)C(=O)N[C@@H](Cc1ccncc1)C(=O)NCCc1c[nH]c2ccc(Cl)cc12` [Compound 9, 4-amino-N-((S)-1-((S)-1-((S)-1-(2-(5-chloro-1H-indol-3-yl)ethylamino)-1-oxo-3-(pyridin-4-yl)propan-2-ylamino)-3-(4-chlorophenyl)-1-oxopropan-2-ylamino)-3-(5-hydroxy-1H-indol-3-yl)-1-oxopropan-2-yl)butanamide], the Ki [6] is reported as 1 to 5 µM.
